Assay results published in patent US20240226115A1, “AXL INHIBITOR COMPOUNDS” (ARCUS BIOSCIENCES, INC., priority 2021, published 2024).

Tests used:
recombinant human TYRO3 = target: T1, recombinant human TYRO3 (Homo sapiens, UniProt Q06418); test: HTRF KinEASE-TK biochemical potency, TYRO3; details: 1 nM TYRO3, 700 μM ATP
T1 construct: purchased Invitrogen
T1 sequence (Q06418 41-890): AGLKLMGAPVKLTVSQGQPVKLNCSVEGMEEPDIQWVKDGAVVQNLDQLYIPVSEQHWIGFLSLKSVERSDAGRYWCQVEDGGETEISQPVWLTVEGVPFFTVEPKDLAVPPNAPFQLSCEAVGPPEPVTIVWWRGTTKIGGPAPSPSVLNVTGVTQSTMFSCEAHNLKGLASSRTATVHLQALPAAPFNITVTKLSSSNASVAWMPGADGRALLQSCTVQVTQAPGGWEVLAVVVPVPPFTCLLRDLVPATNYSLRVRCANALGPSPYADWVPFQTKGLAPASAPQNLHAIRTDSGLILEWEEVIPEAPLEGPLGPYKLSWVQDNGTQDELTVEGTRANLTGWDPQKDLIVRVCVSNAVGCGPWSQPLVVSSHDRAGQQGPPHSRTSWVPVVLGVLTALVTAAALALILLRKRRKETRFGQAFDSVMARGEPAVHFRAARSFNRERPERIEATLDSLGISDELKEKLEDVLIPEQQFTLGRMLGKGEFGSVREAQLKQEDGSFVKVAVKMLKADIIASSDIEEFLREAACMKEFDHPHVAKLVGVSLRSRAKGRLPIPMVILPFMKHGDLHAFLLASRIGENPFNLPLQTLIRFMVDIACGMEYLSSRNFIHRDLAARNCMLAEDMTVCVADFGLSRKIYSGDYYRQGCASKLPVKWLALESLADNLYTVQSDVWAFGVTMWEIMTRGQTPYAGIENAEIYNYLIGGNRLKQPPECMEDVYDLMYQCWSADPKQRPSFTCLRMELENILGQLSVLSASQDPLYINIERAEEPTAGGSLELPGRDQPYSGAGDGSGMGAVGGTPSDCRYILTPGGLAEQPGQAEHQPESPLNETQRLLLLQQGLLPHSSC
Method: (§1) Purified recombinant human AXL, TYRO3 and MER proteins were purchased from Invitrogen™. 10 nM AXL, 2 nM TYRO3 or MER were incubated with varying concentrations of compounds in 50 mM HEPES, pH 7.4, 10 mM MgCl2, 0.01% BSA, 1 mM DTT and 2% DMSO in a total volume of 20 μl in a 384-well microplate (Corning™ #3640) at RT for 1 h. The AXL, TYRO3 and MER enzymatic reaction was initiated by transferring 10 μl of enzyme and compound mixture into 10 μl of 1.6 μM TK Substrate-biotin (HTRF® KinEASE-TK kit, Cisbio) and 1400 μM ATP pre-incubated in 50 mM HEPES, pH 7.4, 10 mM MgCl2, 0.01% BSA, 1 mM DTT in a 384-well microplate (Corning™ #3640) at RT, giving the final reaction conditions: 5 nM AXL, 1 nM TYRO3 or MER, 800 nM TK Substrate-biotin and 700 μM ATP in 50 mM HEPES, pH 7.4, 10 mM MgCl2, 0.01% BSA, 1 mM DTT and 1% DMSO with varying concentrations of compounds. Following 2 h incubation at RT, the AXL, TYRO3 and MER enzymatic reaction was stopped by transfer of 10 μl of reaction into 10 μl of detection mix (400 nM Streptavidin-XL665, 200-fold dilution TK Antibody-Cryptate and detection buffer, HTRF® KinEASE-TK kit, Cisbio) in a white 384-well microplate (Perkin Elmer, OptiPlate 384). After 1 h incubation at RT, the plate was put into a plate reader (Evision) to read at 665/620 nm (acceptor/donor) for HTRF. The value of the DMSO blank (MIN inhibition=100% activity) was used as a negative control. The positive control was established by adding 5 μl of enzyme and DMSO mixture into 10 μl of detection mix followed by addition of 5 μl of TK Substrate-biotin and ATP mixture (MAX inhibition=0% activity). To calculate the percent activity, Equation 1 was used. Ratio665/620 is the value at a given compound concentration: […]

recombinant human MER = target: T2, recombinant human MER (Homo sapiens, UniProt Q12866); test: HTRF KinEASE-TK biochemical potency, MER; details: 1 nM MER, 700 μM ATP
T2 construct: purchased Invitrogen
T2 sequence (Q12866 21-999): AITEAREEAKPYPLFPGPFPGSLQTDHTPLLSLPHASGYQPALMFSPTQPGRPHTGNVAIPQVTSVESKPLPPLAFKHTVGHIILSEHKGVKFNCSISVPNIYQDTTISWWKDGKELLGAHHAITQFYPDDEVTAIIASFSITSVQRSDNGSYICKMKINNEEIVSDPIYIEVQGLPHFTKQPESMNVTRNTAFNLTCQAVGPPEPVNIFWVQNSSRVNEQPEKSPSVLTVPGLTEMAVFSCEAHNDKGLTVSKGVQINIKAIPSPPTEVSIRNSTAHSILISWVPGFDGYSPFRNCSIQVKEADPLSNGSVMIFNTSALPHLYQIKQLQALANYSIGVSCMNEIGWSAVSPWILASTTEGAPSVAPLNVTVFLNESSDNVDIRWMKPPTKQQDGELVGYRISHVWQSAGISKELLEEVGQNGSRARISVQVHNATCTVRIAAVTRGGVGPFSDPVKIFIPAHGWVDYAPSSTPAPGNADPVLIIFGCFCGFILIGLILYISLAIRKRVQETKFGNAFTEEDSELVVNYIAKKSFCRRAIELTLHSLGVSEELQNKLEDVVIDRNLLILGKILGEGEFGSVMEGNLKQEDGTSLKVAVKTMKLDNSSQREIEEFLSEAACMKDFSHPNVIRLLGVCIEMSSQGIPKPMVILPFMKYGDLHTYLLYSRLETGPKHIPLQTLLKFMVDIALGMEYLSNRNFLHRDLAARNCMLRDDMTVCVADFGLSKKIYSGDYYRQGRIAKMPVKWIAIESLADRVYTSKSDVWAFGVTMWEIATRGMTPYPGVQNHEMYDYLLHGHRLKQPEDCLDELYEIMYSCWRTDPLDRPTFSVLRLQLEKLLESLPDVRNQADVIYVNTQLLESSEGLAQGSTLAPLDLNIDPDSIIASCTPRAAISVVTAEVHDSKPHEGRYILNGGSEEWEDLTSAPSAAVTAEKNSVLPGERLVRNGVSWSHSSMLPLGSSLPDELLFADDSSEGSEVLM
Method: as §1

SMILES | IC50 (recombinant human TYRO3) | IC50 (recombinant human MER)
O=C1NCCOc2cc(-c3n[nH]c4ncc(-c5ccc6c(c5)CCN(C5CC5)C6)cc34)ccc21 [Example 21, 8-(5-(2-Cyclopropyl-1,2,3,4-tetrahydroisoquinolin-6-yl)-1H-pyrazolo[3,4-b]pyridin-3-yl)-3,4-dihydrobenzo[f][1,4]oxazepin-5(2H)-one] | 100 to 1000 nM | 100 to 1000 nM
CC1(O)CCOc2cc(-c3n[nH]c4ncc(-c5ccc6c(c5)CCN(C5CCCC5)CC6)cc34)ccc21 (stereo not shown) [Example 26, 7-[5-(3-Cyclopentyl-2,3,4,5-tetrahydro-1H-3-benzazepin-7-yl)-1H-pyrazolo[3,4-b]pyridin-3-yl]-4-methyl-3,4-dihydro-2H-1-benzopyran-4-ol] | < 100 nM | 100 to 1000 nM
CC1(O)CCCCc2cc(-c3n[nH]c4ncc(-c5ccc6c(c5)CCN(C5CCCC5)CC6)cc34)ccc21 (stereo not shown) [Example 27, 2-[5-(3-Cyclopentyl-2,3,4,5-tetrahydro-1H-3-benzazepin-7-yl)-1H-pyrazolo[3,4-b]pyridin-3-yl]-5-methyl-6,7,8,9-tetrahydro-5H-benzo[7]annulen-5-ol] | 100 to 1000 nM | > 1000 nM
CC1(O)CCCOc2cc(-c3n[nH]c4ncc(-c5ccc6c(c5)CCN(C5CCCC5)CC6)cc34)ccc21 (stereo not shown) [Example 28, (8-[5-(3-Cyclopentyl-2,3,4,5-tetrahydro-1H-3-benzazepin-7-yl)-1H-pyrazolo[3,4-b]pyridin-3-yl]-5-methyl-2,3,4,5-tetrahydro-1-benzoxepin-5-ol)] | 100 to 1000 nM | 100 to 1000 nM
C[C@@H]1CCCN1C1CCc2ccc(-c3cnc4[nH]nc(-c5ccc6c(c5)OCCC6(C)O)c4c3)cc2CC1 (stereo partly drawn) [Example 29, 4-Methyl-7-(5-{7-[(2R)-2-Methylpyrrolidin-1-yl]-6,7,8,9-tetrahydro-5H-benzo[7]annulen-2-yl}-1H-pyrazolo[3,4-b]pyridin-3-yl)-3,4-dihydro-2H-1-benzopyran-4-ol] | < 100 nM | 100 to 1000 nM
CC1(O)CCc2cc(-c3n[nH]c4ncc(-c5ccc6c(c5)CC[C@@H](N5CCCC5)CC6)cc34)ccc21 (stereo partly drawn) [Example 30, 1-Methyl-5-{5-[(7S)-7-(pyrrolidin-1-yl)-6,7,8,9-tetrahydro-5H-benzo[7]annulen-2-yl]-1H-pyrazolo[3,4-b]pyridin-3-yl}-2,3-dihydro-1H-inden-1-ol] | < 100 nM | 100 to 1000 nM
CC1(O)CCOc2cc(-c3n[nH]c4ncc(-c5ccc6c(c5)CC[C@@H](N5CCCC5)CC6)cc34)ccc21 (stereo partly drawn) [Example 31, 4-Methyl-7-{5-[(7S)-7-(pyrrolidin-1-yl)-6,7,8,9-tetrahydro-5H-benzo[7]annulen-2-yl]-1H-pyrazolo[3,4-b]pyridin-3-yl}-3,4-dihydro-2H-1-benzopyran-4-ol] | < 100 nM | 100 to 1000 nM

The next lines start with the values.

IC50 (recombinant human TYRO3) | IC50 (recombinant human MER) | SMILES
< 100 nM | < 100 nM | O=C1NCCOc2cc(-c3n[nH]c4ncc(-c5ccc6c(c5)CCN(C(=O)C5CC5)CC6)cc34)ccc21 [Example 17, 8-[5-(3-Cyclopropanecarbonyl-2,3,4,5-tetrahydro-1H-3-benzazepin-7-yl)-1H-pyrazolo[3,4-b]pyridin-3-yl]-2,3,4,5-tetrahydro-1,4-benzoxazepin-5-one]
< 100 nM | 100 to 1000 nM | CC(C)(O)C(=O)N1CCc2ccc(-c3cnc4[nH]nc(-c5ccc6c(c5)OCCNC6=O)c4c3)cc2CC1 [Example 19, 8-(5-(3-(2-Hydroxy-2-methylpropanoyl)-2,3,4,5-tetrahydro-1H-benzo[d]azepin-7-yl)-1H-pyrazolo[3,4-b]pyridin-3-yl)-3,4-dihydrobenzo[f][1,4]oxazepin-5(2H)-one]
< 100 nM | 100 to 1000 nM | O=C1NCCOc2cc(-c3n[nH]c4ncc(-c5ccc6c(c5)CCN(C5CC5)CC6)cc34)ccc21 [Example 20, 8-(5-(3-Cyclopropyl-2,3,4,5-tetrahydro-1H-benzo[d]azepin-7-yl)-1H-pyrazolo[3,4-b]pyridin-3-yl)-3,4-dihydrobenzo[f][1,4]oxazepin-5(2H)-one]
< 100 nM | < 100 nM | CC1(N2CCCC2)CCc2ccc(-c3cnc4[nH]nc(-c5ccc6c(c5)OCCNC6=O)c4c3)cc2CC1 (stereo not shown) [Example 22, 8-{5-[7-Methyl-7-(pyrrolidin-1-yl)-6,7,8,9-tetrahydro-5H-benzo[7]annulen-2-yl]-1H-pyrazolo[3,4-b]pyridin-3-yl}-2,3,4,5-tetrahydro-1,4-benzoxazepin-5-one]
< 100 nM | < 100 nM | C[C@@H]1CCCN1C1(C)CCc2ccc(-c3cnc4[nH]nc(-c5ccc6c(c5)OCCNC6=O)c4c3)cc2CC1 (stereo partly drawn) [Example 23, 8-(5-{7-Methyl-7-[(2R)-2-methylpyrrolidin-1-yl]-6,7,8,9-tetrahydro-5H-benzo[7]annulen-2-yl}-1H-pyrazolo[3,4-b]pyridin-3-yl)-2,3,4,5-tetrahydro-1,4-benzoxazepin-5-one]
< 100 nM | < 100 nM | C[C@H]1CCCN1C1(C)CCc2ccc(-c3cnc4[nH]nc(-c5ccc6c(c5)OCCNC6=O)c4c3)cc2CC1 (stereo partly drawn) [Example 24, 8-(5-{7-Methyl-7-[(2S)-2-methylpyrrolidin-1-yl]-6,7,8,9-tetrahydro-5H-benzo[7]annulen-2-yl}-1H-pyrazolo[3,4-b]pyridin-3-yl)-2,3,4,5-tetrahydro-1,4-benzoxazepin-5-one]
< 100 nM | < 100 nM | CC[C@@H]1CCCN1C1CCc2ccc(-c3cnc4[nH]nc(-c5ccc6c(c5)OCCNC6=O)c4c3)cc2CC1 (stereo partly drawn) [Example 25, 8-(5-{7-[(2R)-2-Ethylpyrrolidin-1-yl]-6,7,8,9-tetrahydro-5H-benzo[7]annulen-2-yl}-1H-pyrazolo[3,4-b]pyridin-3-yl)-2,3,4,5-tetrahydro-1,4-benzoxazepin-5-one]
